Tested on: Atoh1-GFP positive hair cells and Sox2+ supporting cells in whole cochlea
Assay: Ex vivo whole cochlea culture, drug applied at the round window niche
Format: cell-based, mouse
Description: To culture the intact cochlea of P0–P1 mice, the entire otic capsule (cochlea and semicircular canals) was carefully dissected. Connective tissues and nerves were removed to clear the round window niche and the capsule was positioned with the round window facing up in a sterile 35 mm dish. A surgical sponge was employed to blot dry the interior of the round window niche, which was then filled with 2 μl of the formulated drug and applied with a small pipette tip. Following 2 h of drug treatment at 37°C with 5% CO2, the tissue was transferred to a 50 ml conical tube containing 10 ml medium (DMEM, 5%FBS, 5% horse serum and ampicillin) and the tube was sparged with 95% O2/5% CO2 for 5–10 min and incubated for 2 days at 37°C, rotating on a roller/rocker (SCILOGEX MX-T6-S Analog Tube Roller) at 15–17 rpm.
For whole-mount immunohistochemistry, whole cochleae were fixed (4% PFA) ON at 4°C, then incubated in primary antibodies (72 h, rocking at 4°C), goat anti-GFP polyclonal Ab (AbCam, ab6673) and rabbit anti-Sox2 polyclonal IgG (GenTex, GTX101506) in 4% normal donkey serum. Following extended washes (over 24 h), cochlea were incubated for 24 h in secondary antibodies donkey anti-goat Alexa 488 (Thermo Fisher, A11055) and donkey anti-rabbit Alexa 647 (Thermo Fisher, A31573) and extensively washed. The intact OC were then microdissected from cochleae and mounted on a coverslip for confocal imaging. A LSM 510 Confocal Microscope (Zeiss) utilizing 63X Zeiss Plan-APOCHROMAT DIC oil, 1.4NA and Zen 2009 LSM imaging software was used to optically scan mid-apex regions of OCs. Cellular quantification and image analysis computation were performed with Imaris 8.2.1 software (Bitplane).
To assess the permeability of the compounds across the round window membrane, a novel ex vivo model was devised to compare drug entry, after delivery to the exterior of the cochlear capsule, to resemble middle ear application. Specifically, CPD3 application was tested in organotypic culture of the entire otic capsule (Figure 4). CPD3, formulated at two different concentrations (1 and 7.2 mM) in 70% PEG400 or 10% POX338 (POX), was applied at the round window niche. Drug formulations were allowed to absorb briefly into the cochlea prior to the 48 h culture. […] For the POX338 formulation, we further characterized the number of Sox2+ supporting cells in the sensory epithelium. […] Also in this model, we observed a trend for new hair cells to be greater toward the apex than the base in agreement with the results obtained with the OC organotypic culture and indicated GSI exposure was throughout the entire length of the organ of Corti length during the culture period.
FIGURE 4 Hair cell quantification in whole cochlea culture. (A) Hair cell counts from whole cochea culture with directly applied CPD3 in 70% PEG400 (1 mM or 7.2 mM). Atoh1-GFP positive hair cells in different organ of Corti regions (B, base; MB, mid-base; MA, mid-apex; A, apex) (n = 3 independent experiments). (B) Hair cell counts from whole cochea culture with directly applied CPD3 in 10% POX338 (1 mM;, or 7.2 mM). Atoh1-GFP positive hair cells in different organ of Corti regions (B, base; MB, mid-base; MA, mid-apex; A, apex; n = 3 independent experiments). (C) Immunostained inner ear sensory epithelia following whole cochlea culture with direct application of CPD3 (1 and 7.2 mM; Vehicle, 10% POX338). 3D projections of confocal stacks at mid-base region of organ of Corti, Atoh1-GFP (hair cells, green) and Sox2 (supporting cells, red). (D) Quantification of Atoh1-GFP-positive (green dots) and Sox2-positive cells (red dots) after direct application of CPD3 (1 or 7.2 mM), or vehicle formulated in 10% POX338. (*p < 0.05; ***p < 0.001, one-way ANOVA with multiple comparison; n = 12; 3 independent experiments; all regions-base to apex).

Compound: COc1ccc2c(c1)N1CCC(C)(C)C1=CC(=O)[C@H]2NC(=O)[C@H](C)NC(=O)CCC(F)(F)F [CPD3]
- Increase in Atoh1+ hair cells above vehicle-only (1 mM in 10% POX338): 23.3%
- Atoh1+ hair cells (1 mM in 10% POX338, 48 h culture): 72 ± 11 hair cells/100 μm
- Change in Atoh1+ hair cells above vehicle-only (1 mM in 70% PEG400): no change
- Atoh1+ hair cells (1 mM in 70% PEG400, 48 h culture): 54 ± 7 hair cells/100 μm
- Increase in Atoh1+ hair cells above vehicle-only (7.2 mM in 10% POX338): 54.4%
- Atoh1+ hair cells (7.2 mM in 10% POX338, 48 h culture): 90 ± 20 hair cells/100 μm
- Increase in Atoh1+ hair cells above vehicle-only (7.2 mM in 70% PEG400): 60.1%
- Atoh1+ hair cells (7.2 mM in 70% PEG400, 48 h culture): 87 ± 15 hair cells/100 μm
- Supporting cell (Sox2+) counts (10% POX338 formulation, p < 0.001): significant decrease

From article PMC8414802, “Hair Cell Generation in Cochlear Culture Models Mediated by Novel γ-Secretase Inhibitors” (Frontiers in Cell and Developmental Biology, 2021)
